Data from patent US11753407B2, “Compounds for treating spinal muscular atrophy” (PTC Therapeutics, Inc., priority 2012, dated 2023).

Columns and labels:
[1] = system: Smn protein in SMA patient fibroblast cells (GM03813); assay: Smn protein assay in cultured cells (SMN HTRF); format: cell-based, human; conditions: SMA patient fibroblast cells, 48 hours; for EC1.5x for Smn protein expression: 7-point concentration curve, SMN HTRF, concentration producing 1.5 times Smn protein vs DMSO vehicle control; for maximum fold (Fold) increase of Smn protein: 7-point concentration data, fold relative to vehicle control
Procedure, shortened: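 SMA patient fibroblasts (5,000/well, DMEM-10% FBS) treated 48 h at 37° C with 7-point, 3.16-fold compound series in triplicate; lysates read by SMN HTRF (665/620 nm ratio). Fold Smn increase over DMSO vehicle derived; EC1.5× is concentration giving 1.5-fold Smn, with maximum fold also reported.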

[2] = system: SMN2 minigene mRNA (SMN2-A minigene) in HEK293H cells; assay: SMN2 minigene mRNA splicing RT-qPCR assay in cultured cells; format: cell-based, human; conditions: Homo sapiens, HEK293-H; concentration increasing full length SMN2 mRNA 1.5-fold relative to vehicle-treated cells; HEK293H cells with SMN2-A minigene, 24 hours, 7-point concentration data; read-out: EC1.5x for production of full length SMN2 mRNA
Procedure, shortened: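 HEK293H cells stably carrying SMN2-A minigene treated with compounds (7-point, 3.16-fold dilutions, duplicates) for 24 h at 37 °C. Full-length exon 7-containing minigene mRNA measured by multiplex RT-qPCR with GAPDH, normalized and expressed relative to vehicle (modified ΔΔCt); EC1.5× is concentration giving 1.5-fold increase.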

Cc1cc2cc(-c3cc(=O)n4cc(N5CCNCC5)ccc4n3)oc2c(C)n1 [Cpd 486, 2-(5,7-dimethylfuro[2,3-c]pyridin-2-yl)-7-(piperazin-1-yl)-4H-pyrido[1,2-a]pyrimidin-4-one]
EC1.5x for Smn protein expression [1]: **** (an EC1.5x≤0.3 μM is indicated by four stars (****))
maximum fold (Fold) increase of Smn protein [1]: **** (a fold increase between >1.5 and ≤1.65 is indicated by four stars (****))
EC (1.5-fold increase) [2]: < 0.1 µM
melting point: 198 to 200 °C

Cn1ncc2cc(-c3cc(=O)n4cc(C5CCNCC5)ccc4n3)ccc21 [Cpd 603, 2-(1-methyl-1H-indazol-5-yl)-7-(piperidin-4-yl)-4H-pyrido[1,2-a]pyrimidin-4-one]
EC1.5x for Smn protein expression [1]: *** (an EC1.5× between >0.3 μM and ≤1 μM is indicated by three stars (***))
maximum fold (Fold) increase of Smn protein [1]: ***** (a fold increase >1.65 is indicated by five stars (*****))
EC (1.5-fold increase) [2]: 0.1 to 0.3 µM
melting point: 268 to 270 °C

COc1nc(C)cn2nc(-c3cc(=O)n4cc(N5CCN(C)CC5)ccc4n3)cc12 [Cpd 625, 2-(4-methoxy-6-methylpyrazolo[1,5-a]pyrazin-2-yl)-7-(4-methylpiperazin-1-yl)-4H-pyrido[1,2-a]pyrimidin-4-one]
maximum fold (Fold) increase of Smn protein [1]: ** (a fold increase between >1.2 and ≤1.35 is indicated by two stars (**))
EC (1.5-fold increase) [2]: 1 to 3 µM
melting point: 242 to 244 °C

Cc1cn2nc(-c3cc(=O)n4cc(N5CCN(C)CC5)ccc4n3)cc2c(O)n1 [Cpd 626, 2-(4-hydroxy-6-methylpyrazolo[1,5-a]pyrazin-2-yl)-7-(4-methylpiperazin-1-yl)-4H-pyrido[1,2-a]pyrimidin-4-one]
EC1.5x for Smn protein expression [1]: ** (an EC1.5× between >1 μM and ≤3 μM is indicated by two stars (**))
maximum fold (Fold) increase of Smn protein [1]: ***** (a fold increase >1.65 is indicated by five stars (*****))
EC (1.5-fold increase) [2]: 0.3 to 1 µM
melting point: 280 to 283 °C

CCc1nc(C)cn2nc(-c3cc(=O)n4cc(N5CCN(C)[C@H](C)C5)ccc4n3)cc12 [Cpd 629, 7-[(3R)-3,4-dimethylpiperazin-1-yl]-2-(4-ethyl-6-methylpyrazolo[1,5-a]pyrazin-2-yl)-4H-pyrido[1,2-a]pyrimidin-4-one]
EC1.5x for Smn protein expression [1]: **** (an EC1.5x≤0.3 μM is indicated by four stars (****))
maximum fold (Fold) increase of Smn protein [1]: ***** (a fold increase >1.65 is indicated by five stars (*****))
EC (1.5-fold increase) [2]: < 0.1 µM
melting point: 257 to 259 °C

Cc1cn2nc(-c3cc(=O)n4cc(C5CCN(CCF)CC5)ccc4n3)cc2c(C)n1 [Cpd 662, 2-(4,6-dimethylpyrazolo[1,5-a]pyrazin-2-yl)-7-[1-(2-fluoroethyl)piperidin-4-yl]-4H-pyrido[1,2-a]pyrimidin-4-one]
EC1.5x for Smn protein expression [1]: **** (an EC1.5x≤0.3 μM is indicated by four stars (****))
maximum fold (Fold) increase of Smn protein [1]: ***** (a fold increase >1.65 is indicated by five stars (*****))
EC (1.5-fold increase) [2]: < 0.1 µM
melting point: 197 to 199 °C

Cc1cn2cc(-c3cc(=O)n4cc(N5CCNCC5)ccc4n3)cc(CO)c2n1 [Cpd 674, 2-[8-(hydroxymethyl)-2-methylimidazo[1,2-a]pyridin-6-yl]-7-(piperazin-1-yl)-4H-pyrido[1,2-a]pyrimidin-4-one]
EC1.5x for Smn protein expression [1]: **** (an EC1.5x≤0.3 μM is indicated by four stars (****))
maximum fold (Fold) increase of Smn protein [1]: ***** (a fold increase >1.65 is indicated by five stars (*****))
EC (1.5-fold increase) [2]: < 0.1 µM
melting point: > 320 °C

Cc1cn2nc(-c3cc(=O)n4cc(N5CCNCC5)ccc4n3)cc2c(N(C)C)n1 [Cpd 688, 2-[4-(dimethylamino)-6-methylpyrazolo[1,5-a]pyrazin-2-yl]-7-(piperazin-1-yl)-4H-pyrido[1,2-a]pyrimidin-4-one]
EC1.5x for Smn protein expression [1]: ** (an EC1.5× between >1 μM and ≤3 μM is indicated by two stars (**))
maximum fold (Fold) increase of Smn protein [1]: *** (a fold increase between >1.35 and ≤1.5 is indicated by three stars (***))
EC (1.5-fold increase) [2]: 1 to 3 µM
melting point: 245 to 248 °C
